Structures can show the parent of a compound that is named as a salt. Marks after values point to notes of the source that are not given here.
System: eyes of patients with pupil size in dim light of greater than 7 mm
Test: Example 2 clinical study: monocular low contrast visual acuity under photopic conditions (5% tint chart)
Format: in vivo, humans
Settings: for mean low contrast acuity compared to baseline: paired t-test
Description: Sixteen patients were randomized into four groups (of four subjects each). Each group was treated on three successive study visits separated by at least 4 days with one drop of ophthalmic oxymetazoline solution (Visine LR®) in each eye followed by one drop test article in each eye. The test article was a 0.2% (w/v) phentolamine mesylate solution, 0.4% (w/v) phentolamine mesylate solution, 0.8% (w/v) phentolamine mesylate solution, or placebo. Test articles contained the designed amount of phentolamine mesylate in a solution of Tears Naturale II® (from Alcon Labs). Placebo was just Tears Naturale II® (from Alcon Labs). Tears Naturale II® (from Alcon Labs) contains Dextran 70 (0.1% by weight), Hydroxypropyl Methylcellulose 2910 (0.3% by weight), Polyquarternium-1 (0.001% by weight), potassium chloride, water (purified), sodium borate, sodium chloride, and hydrochloric acid and/or sodium hydroxide as necessary to adjust the pH. The patients' eye redness and pupil diameters were recorded at baseline (i.e., prior to treatment administration), and at 30 minutes, 1 hour, 2 hours, 4 hours, and 8 hours after administration of test articles. The incidence of any treatment-emergent adverse events was also recorded. Total study duration was approximately nine hours.
Eye redness of patients' eyes was evaluated by the research assistant and recorded as a single integer of value 0 (no redness) to 4 (extreme redness) at baseline and each time point after treatment. Pupil diameters were measured to within 0.1 mm for each eye at baseline and each subsequent time point using a NeurOptics™ pupilometer. Monocular high contrast visual acuity was measured for each eye under photopic conditions at baseline and each subsequent time point in a darkened room using a Precision Vision™ High Contrast (100% tint) Visual Acuity Chart (Catalog #2102) backlit by the Precision Vision Illumination Box. Monocular low contrast visual acuity was measured for each eye under photopic conditions at baseline and each subsequent time point in a darkened room using a Precision Vision™ Low Contrast (5% tint) Visual Acuity Chart (Catalog #2186) backlit by the Precision Vision Illumination Box. Effect of treatment on glare was assessed using an experimental test method consisting of a panel with a high wattage central light emitting diode (LED) and a set of 7 lower wattage red LEDs radiating horizontally and vertically from the central light.
Comparisons of changes in mean values within treatment groups were tested for significance using two-tailed paired two sample t-tests with a threshold for significance set at p<0.01 (Bonferroni Correction for multiple paired t-tests). Differences between treatment groups with respect to mean values for pupil size over the course of the study were tested for significance using repeated measure ANOVA (which discards data from subjects lacking any data points). Differences in mean eye redness between treatment groups were evaluated using Kruskal-Wallis nonparametric testing. Differences in means between treatment groups at individual time points were tested for significance using one-way ANOVA.

[1] = 0.2% (w/v) solution, 30 min after treatment
[2] = 0.2% (w/v) solution, 1 hour after treatment
[3] = 0.2% (w/v) solution, 2 hours after treatment
[4] = 0.2% (w/v) solution, 4 hours after treatment
[5] = 0.2% (w/v) solution, 8 hours after treatment
[6] = 0.2% (w/v) solution, Baseline, prior to treatment
[7] = 0.4% (w/v) solution, 30 min after treatment
[8] = 0.4% (w/v) solution, 1 hour after treatment
[9] = 0.4% (w/v) solution, 2 hours after treatment
[10] = 0.4% (w/v) solution, 4 hours after treatment
[11] = 0.4% (w/v) solution, 8 hours after treatment
[12] = 0.4% (w/v) solution, Baseline, prior to treatment
[13] = 0.8% (w/v) solution, 30 min after treatment
[14] = 0.8% (w/v) solution, 1 hour after treatment
[15] = 0.8% (w/v) solution, 2 hours after treatment
[16] = 0.8% (w/v) solution, 4 hours after treatment
[17] = 0.8% (w/v) solution, 8 hours after treatment
[18] = 0.8% (w/v) solution, Baseline, prior to treatment

Cc1ccc(N(CC2=NCCN2)c2cccc(O)c2)cc1 [Phentolamine Mesylate, phentolamine mesylate]
Maximum low contrast visual acuity [1]: −0.10 LogMar | Mean low contrast visual acuity [1]: −0.35 LogMar | Minimum low contrast visual acuity [1]: −0.78 LogMar | Maximum low contrast visual acuity [2]: −0.08 LogMar | Mean low contrast visual acuity [2]: −0.32 LogMar | Minimum low contrast visual acuity [2]: −0.80 LogMar | Maximum low contrast visual acuity [3]: −0.11 LogMar | Mean low contrast visual acuity [3]: −0.32 LogMar | Minimum low contrast visual acuity [3]: −0.74 LogMar | Maximum low contrast visual acuity [4]: 0.00 LogMar | Mean low contrast visual acuity [4]: −0.30 LogMar | Minimum low contrast visual acuity [4]: −0.76 LogMar | Maximum low contrast visual acuity [5]: −0.08 LogMar | Mean low contrast visual acuity [5]: −0.30^e LogMar | Minimum low contrast visual acuity [5]: −0.72 LogMar | Maximum low contrast visual acuity [6]: −0.06 LogMar | Mean low contrast visual acuity [6]: −0.34^d LogMar | Minimum low contrast visual acuity [6]: −0.80 LogMar | Maximum low contrast visual acuity [7]: 0.00 LogMar | Mean low contrast visual acuity [7]: −0.24 LogMar | Minimum low contrast visual acuity [7]: −0.70 LogMar | Maximum low contrast visual acuity [8]: −0.04 LogMar | Mean low contrast visual acuity [8]: −0.24 LogMar | Minimum low contrast visual acuity [8]: −0.78 LogMar | Maximum low contrast visual acuity [9]: 0.00 LogMar | Mean low contrast visual acuity [9]: −0.22 LogMar | Minimum low contrast visual acuity [9]: −0.64 LogMar | Maximum low contrast visual acuity [10]: 0.00 LogMar | Mean low contrast visual acuity [10]: −0.20 LogMar | Minimum low contrast visual acuity [10]: −0.70 LogMar | Maximum low contrast visual acuity [11]: 0.00 LogMar | Mean low contrast visual acuity [11]: −0.22 LogMar | Minimum low contrast visual acuity [11]: −0.64 LogMar | Maximum low contrast visual acuity [12]: −0.10 LogMar | Mean low contrast visual acuity [12]: −0.28 LogMar | Minimum low contrast visual acuity [12]: −0.74 LogMar | mean low contrast acuity compared to baseline (0.4% (w/v), 1, 2, 4, and 8 hours post treatment): significant increases | Maximum low contrast visual acuity [13]: −0.02 LogMar | Mean low contrast visual acuity [13]: −0.28 LogMar | Minimum low contrast visual acuity [13]: −0.76 LogMar | Maximum low contrast visual acuity [14]: 0.00 LogMar | Mean low contrast visual acuity [14]: −0.25 LogMar | Minimum low contrast visual acuity [14]: −0.62 LogMar | Maximum low contrast visual acuity [15]: 0.00 LogMar | Mean low contrast visual acuity [15]: −0.22 LogMar | Minimum low contrast visual acuity [15]: −0.60 LogMar | Maximum low contrast visual acuity [16]: 0.00 LogMar | Mean low contrast visual acuity [16]: −0.22 LogMar | Minimum low contrast visual acuity [16]: −0.70 LogMar | Maximum low contrast visual acuity [17]: 0.00 LogMar | Mean low contrast visual acuity [17]: −0.25 LogMar | Minimum low contrast visual acuity [17]: −0.78 LogMar | Maximum low contrast visual acuity [18]: −0.11 LogMar | Mean low contrast visual acuity [18]: −0.34 LogMar | Minimum low contrast visual acuity [18]: −0.78 LogMar | mean low contrast acuity compared to baseline (0.8% (w/v), all post-treatment time points): significant increases | maximal mean increase in low contrast visual acuity (0.8% (w/v), at 2 hours): 0.12 Log Mar | improvement in low contrast vision (0.8% (w/v), at 2 hours, equivalent of the maximal mean increase): ~6 letters on a Snellen chart | mean low contrast visual acuity, 0.2% (w/v) versus 0.4% and 0.8% (w/v) (ad hoc Fisher's test) (2 hours post-dosing, P<0.05): significant differences

— patent US11000509B2, “Methods and compositions for daily ophthalmic administration of phentolamine to improve visual performance” (Ocuphire Pharma, Inc., priority 2013, dated 2021)
